The values below come from patent US20080015147A1, “Method for inhibiting neuronal cell death” (priority 2006, published 2008).

Entries after “also recorded” stand apart in the source; their conditions may differ.

Common to all, as to type: cell-based, mouse
The test system of assay [1] is N38 cells. As to the kind of experiment: MTT assay (mitochondrial activity). Particulars: for MTT activity (optical density): 48 hrs, 2×10^−7 M. The protocol: The effect of TCAP-1 on cell proliferation at each pH was examined by direct counts using a hemocytometer and indirectly by assessing mitochondrial activity using a colorimetric MTT (3-[4,5-dimethylthiazol-2-yl]-2,5-diphenyl tetrazolium bromide) assay on cultured N38 cells. For hemocytometer counts, the cultures were incubated for 24 and 48 hrs. The cells were suspended using 1 ml of 0.25% Trypsin with EDTA (Gibco-Invitrogen, Burlington, Canada), centrifuged at 1600 RPM for 4 min, and resuspended with PBS. The cells in 50 μl aliquots were vortexed and counted on a hemocytometer.
A (3-4,5-dimethylthiazol-2-yl]-2,5-diphenyl tetrazolium bromide) MTT assay was conducted using the In Vitro Toxicology Assay Kit: MTT based (Sigma, St. Louis). The cells were cultured for the MTT assay at 24 and 48 hours and were incubated at 37° C. in 5% CO2 for 3 hrs in the presence of MTT 200 μl/2 ml medium. The samples were mixed by shaking the plate horizontally for 30 min. The background absorbance of the multi-well plates was determined at 690 nm and subtracted from the 570 nm measurement.
On the technique in general: Formazan colour is commonly taken as a measure of viable cells.

Assay [2] concerns N38 cells. In words: Bromodeoxyuridine (BrdU) incorporation assay. Particulars: 24 or 48 hrs; pH extremes. From the text:
The evaluation of cell cycle progression is important when assessing the viability of a cell population. The cell cycle is a sequence of stages that a cell passes through between one division and the next. The cell cycle oscillates between mitosis and the interphase, which is divided into G, S, and G 2. In the G phase there is a high rate of biosynthesis and growth; in the S phase there is the doubling of the DNA content as a consequence of chromosome replication; in the G 2 phase the final preparations for cell division (cytokinesis) are made (Raza, 1985). In order to determine whether TCAP was increasing cell cycle efficiency, a bromodeoxyuridine (BrdU) non-isotopic enzyme immunoassay was conducted (Calbiochem, Canada). BrdU incorporation into newly synthesized DNA of actively proliferating cells enables one to quantify cell cycle progression and the population of cells entering the S phase(Gratzner, 1982; Raza, 1985).
N38 cells were grown in a 96-well culture plate using 100 μl at an initial density of 2×10^5 cells/ml. Controls consisted of a blank, one well containing only DMEM with no cells and background, and one well with cells but with no BrdU label added. […] Absorbance was measured on a SPECTRAmax Microplate spectrophotometer at dual wavelengths at 450-540 nm.

Another assay concerns caspase 3. In words: Caspase 3 colorimetric assay. The protocol:
Caspase 8 and 3 colorimetric assays were performed on the N38 cells at all pH conditions. The assay was based on the detection of the chromophore pNA after cleavage from the labeled substrate IETD-pNA and DEVD-pNA for caspase 8 and 3, respectively. Comparison of the pNA absorbance from the suspected apoptotic sample was compared to the uninduced neutral pH sample. Caspase 8 and 3 were analysed using the Caspase-3 Colorimetric Activity Assay (Chemicon, Temecula USA) and Caspase-8 Colorimetric Activity Assay (Chemicon, Temecula USA). The cells from each pH treatment described previously at 24 and 48 hrs were removed using a cell scraper and centrifuged at 1500 rpm for 10 minutes. The cells were resuspended in 350 μl of chilled cell lysis buffer containing 500 μl PBS, 5 μl 1% Triton ×100 (Sigma, St. Louis), 25 μl proteinase inhibitor cocktail set III (VWR, Mississauga), 0.5 μM dithiothreitol (DTT) (Sigma, St. Louis) and 2.5 μl phenylmethylsulphonylfluoride (PMSF) diluted in 1 mL of methanol (EM Science, Gibbstown), then incubated on ice for 10 min and centrifuged for 5 minutes at 10,000 rpm. The supernatant, consisting of cytosolic extracts, was transferred to a new tube and a bicinchoninic acid (BCA) protein assay (Pierce, Rockford) was conducted to determine total protein concentration. The absorbance of each sample was measured on a SPECTRAmax Microplate spectrophotometer at 405 nm after an incubation period of 2 hours at 37° C. Changes in caspase 3 activity were determined by comparing the absorbance reading from the induced sample with the level of the uninduced control. Background readings from the buffer were subtracted from the reading of both the induced (pH 6.8, 8.0, 8.4) and uninduced (pH 7.4) samples before calculating changes in caspase 3 activity. The same was done for the detection of caspase 8. As a control, N38 cells were cultured with pH 7.4 DMEM and incubated for 4 days, apoptosis was then induced using 10 μM/ml etoposide and lysed according to the above protocol and used a control for all subsequent caspase 3 detection. All assays were performed with 4 replications.

Regarding “teneurin C-terminus associated peptide [TCAP-1]”, the MTT activity entry with N38 cells [1] (pH 6.8) and with N38 cells [1] (pH 7.4) was “did not induce a significant effect on MTT activity” throughout. Also, the “MTT activity (optical density)” value in the assay with N38 cells [1] (pH 8.0) and in the assay on N38 cells [1] (pH 8.4) was “significant increase in optical density; also recorded: increased the number of viable cells” each time. The BrdU incorporation entry with N38 cells [2] is on record as “no significant results”. Besides, the “relative level of caspase 3 activity, of the etoposide-induced increase” value with caspase 3 (pH 6.8) is reported as approximately 40%. Moreover, the “caspase 3 activity vs vehicle” value with caspase 3 (pH 6.8, P<0.05) is “increased caspase 3 activity”; in the assay with caspase 3 (pH 8.0), “no significant differences in caspase 8 and 3 activity”; in the assay on caspase 3 (pH 8.4) it was “no significant differences in caspase 8 and 3 activity”.
